The target in one data set is ADR - Alpha 2C (Homo sapiens, UniProt P18825). In words: Radioligand binding ADR Alpha 2C. The conditions noted are these: S2 Table; hot ligand [3H] Rauwolscine; read-out: Binding Affinity Ki.
In a further data set the target is ADRB3 (Homo sapiens, UniProt P13945). Briefly: Radioligand binding ADRB3. The conditions noted are these: S2 Table; hot ligand [3H]CGP12177; read-out: Binding Affinity Ki.
Data set [1] can be described thus: Cardiovascular studies (heart rate, blood pressure). As to conditions: anesthetized rats, 3 mg/kg subcutaneous. In kind it is in vivo, Sprague-Dawley rats. On the procedure: A polyethylene catheter (PE50) filled with heparinized saline was then inserted into the tail artery and connected to the blood pressure transducer system. After ensuring the absence of any air bubbles, 5–10 min of baseline systolic and diastolic blood pressure along with heart rate measurements were recorded using LabChart Pro (AD Instruments, CO).

The target of a further data set is ADR - Alpha 2A (Homo sapiens, UniProt P08913). Briefly: Radioligand binding ADR Alpha 2A. As to conditions: S2 Table; hot ligand [3H] Rauwolscine; read-out: Binding Affinity Ki.
In another data set the target is ADR- Alpha 1A (Homo sapiens, UniProt P35348). Briefly: Radioligand binding ADR Alpha 1A. As to conditions: S2 Table; hot ligand [3H] Prazosin; read-out: Binding Affinity Ki.
The nature of data set [2]: Microsomal stability assay, mouse. As to conditions: 0.1 uM. In kind it is in vitro ADME.
The target of another data set is 5-HT1B (Homo sapiens, UniProt P28222). Briefly: Radioligand binding 5-HT1B. The conditions noted are these: S2 Table; hot ligand [3H]GR125743; read-out: Binding Affinity Ki.
In the next data set the target is 5-HT 2B (Homo sapiens, UniProt P41595). Briefly: Radioligand binding 5-HT 2B. The conditions noted are these: S2 Table; hot ligand [3H]LSD; read-out: Binding Affinity Ki.
Data set [3] deals with PBR (peripheral benzodiazepine receptor). Briefly: Radioligand binding PBR. As to conditions: S2 Table; hot ligand [3H]PK11195.
The nature of data set [4]: Brain uptake in the in vivo LPS study. On the set-up: species or system C57Bl/6J mice. As to conditions: C57Bl/6J, mouse, ip, mice, 3 mg/kg intraperitoneal, 105 min post-dose, read-out: concentration in brain homogenates. Here is the method: ; subcutaneous; […]; intraperitoneal; n = 4) or vehicle (5% DMSO/20%PEG400/water; intraperitoneal; n = 12) 15 min prior to LPS (50 ug/kg; intraperitoneal). A control group was injected with vehicle 15 minutes prior to saline (n = 18). Following injections, mice were single-housed. At 90 min post-LPS/saline, mice were deeply anesthetized with isoflurane and blood was collected from the right ventricle via cardiac puncture (23 g needle) into lithium heparin-containing vials (BD microtainer plasma tubes). Subsequently, brains were collected after perfusion with phosphate-buffered saline. Plasma was separated by centrifugation (11,000 rpm for 3 minutes) within 60 min of collection and stored at -80°C until analysis. The concentration of TNFα in the collected plasma was measured by ELISA (Invitrogen, KMC3012) according to the manufacturer’s instruction. The LPS-induced inflammatory response in the CNS was assessed by measuring mRNA expression for genes related to neuroimmune activation in brain tissue according to the previously reported method. […] Fold changes of expression relative to control were determined after normalization to GAPDH. Relative quantification and fold change were calculated by the comparative CT method. Brain uptake of STD-101-D1 was determined in brain tissue. […]

Chain of ADRB3 (P13945 whole entry): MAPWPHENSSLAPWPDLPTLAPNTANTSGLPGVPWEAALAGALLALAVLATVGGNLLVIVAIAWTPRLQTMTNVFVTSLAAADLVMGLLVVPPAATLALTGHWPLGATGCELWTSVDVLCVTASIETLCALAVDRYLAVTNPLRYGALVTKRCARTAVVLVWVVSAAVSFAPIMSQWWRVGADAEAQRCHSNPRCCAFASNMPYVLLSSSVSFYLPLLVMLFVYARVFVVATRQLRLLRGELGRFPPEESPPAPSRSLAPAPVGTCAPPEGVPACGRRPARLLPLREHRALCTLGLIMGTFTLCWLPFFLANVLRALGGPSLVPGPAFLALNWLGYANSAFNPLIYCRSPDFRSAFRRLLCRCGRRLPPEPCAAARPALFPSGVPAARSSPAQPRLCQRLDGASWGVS
Chain of ADR - Alpha 2A (P08913 whole entry): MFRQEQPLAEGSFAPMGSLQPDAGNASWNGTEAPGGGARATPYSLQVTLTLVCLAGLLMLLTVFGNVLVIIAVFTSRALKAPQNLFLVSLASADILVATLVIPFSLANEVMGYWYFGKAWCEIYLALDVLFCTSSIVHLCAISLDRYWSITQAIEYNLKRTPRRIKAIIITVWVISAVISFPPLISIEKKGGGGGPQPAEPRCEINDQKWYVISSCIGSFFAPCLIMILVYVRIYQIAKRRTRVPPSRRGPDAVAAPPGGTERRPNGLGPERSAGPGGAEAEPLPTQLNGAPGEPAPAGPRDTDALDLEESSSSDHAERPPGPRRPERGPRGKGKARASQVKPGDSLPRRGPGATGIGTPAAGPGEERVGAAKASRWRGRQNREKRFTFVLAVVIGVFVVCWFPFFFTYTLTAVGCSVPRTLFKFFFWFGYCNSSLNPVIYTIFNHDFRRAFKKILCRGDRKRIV
Chain of ADR - Alpha 2C (P18825 whole entry): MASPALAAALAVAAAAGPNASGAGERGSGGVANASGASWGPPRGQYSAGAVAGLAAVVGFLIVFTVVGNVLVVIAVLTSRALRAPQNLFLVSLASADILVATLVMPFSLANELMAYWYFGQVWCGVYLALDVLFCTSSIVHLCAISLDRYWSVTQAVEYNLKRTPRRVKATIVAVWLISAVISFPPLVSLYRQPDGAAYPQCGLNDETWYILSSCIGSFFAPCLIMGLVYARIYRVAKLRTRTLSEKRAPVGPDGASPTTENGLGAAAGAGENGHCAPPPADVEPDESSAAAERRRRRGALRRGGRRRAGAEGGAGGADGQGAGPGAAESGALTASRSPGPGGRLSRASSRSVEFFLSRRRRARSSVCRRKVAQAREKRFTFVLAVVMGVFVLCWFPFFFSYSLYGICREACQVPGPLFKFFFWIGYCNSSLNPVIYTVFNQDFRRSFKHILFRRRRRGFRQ
Chain of 5-HT1B (P28222 whole entry, species assumed): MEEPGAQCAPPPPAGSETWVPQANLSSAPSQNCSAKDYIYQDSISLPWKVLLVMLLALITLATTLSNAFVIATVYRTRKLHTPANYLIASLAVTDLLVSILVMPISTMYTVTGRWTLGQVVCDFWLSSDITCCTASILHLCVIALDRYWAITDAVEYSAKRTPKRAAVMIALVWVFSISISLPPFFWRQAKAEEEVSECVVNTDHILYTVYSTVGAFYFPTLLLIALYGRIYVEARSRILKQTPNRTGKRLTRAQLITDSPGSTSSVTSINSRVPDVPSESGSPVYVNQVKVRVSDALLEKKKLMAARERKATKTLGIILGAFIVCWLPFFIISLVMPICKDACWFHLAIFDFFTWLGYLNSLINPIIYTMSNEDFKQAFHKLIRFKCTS
Chain of 5-HT 2B (P41595 whole entry, species assumed): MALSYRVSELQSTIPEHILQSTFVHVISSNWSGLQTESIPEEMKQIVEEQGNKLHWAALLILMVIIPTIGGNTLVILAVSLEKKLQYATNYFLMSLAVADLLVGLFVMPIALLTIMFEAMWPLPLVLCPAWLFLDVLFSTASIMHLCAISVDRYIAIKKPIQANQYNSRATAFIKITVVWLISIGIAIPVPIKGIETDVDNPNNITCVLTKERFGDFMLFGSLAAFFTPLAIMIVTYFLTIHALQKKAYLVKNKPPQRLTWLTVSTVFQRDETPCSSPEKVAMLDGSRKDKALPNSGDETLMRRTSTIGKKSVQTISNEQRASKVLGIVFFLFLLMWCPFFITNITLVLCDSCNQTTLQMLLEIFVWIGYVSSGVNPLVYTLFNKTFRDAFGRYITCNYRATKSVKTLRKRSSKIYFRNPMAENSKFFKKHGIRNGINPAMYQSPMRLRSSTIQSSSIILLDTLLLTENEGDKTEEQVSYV
Chain of ADR- Alpha 1A (P35348 whole entry): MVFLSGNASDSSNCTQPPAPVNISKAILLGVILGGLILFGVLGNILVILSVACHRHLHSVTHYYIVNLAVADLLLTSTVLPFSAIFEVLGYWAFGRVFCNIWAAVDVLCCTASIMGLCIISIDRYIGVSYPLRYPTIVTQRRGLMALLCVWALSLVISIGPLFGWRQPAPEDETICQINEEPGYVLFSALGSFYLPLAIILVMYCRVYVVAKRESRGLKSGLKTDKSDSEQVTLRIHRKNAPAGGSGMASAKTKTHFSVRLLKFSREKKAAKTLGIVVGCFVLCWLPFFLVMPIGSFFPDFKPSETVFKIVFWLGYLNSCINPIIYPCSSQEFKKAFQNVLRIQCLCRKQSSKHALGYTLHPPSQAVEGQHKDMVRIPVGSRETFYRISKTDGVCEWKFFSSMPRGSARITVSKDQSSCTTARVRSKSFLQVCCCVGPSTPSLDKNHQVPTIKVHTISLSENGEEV

In general, Ki refers to the equilibrium dissociation constant of an inhibitor or competing ligand from its target. Consider `COc1ccccc1OCCNC[C@H](O)COc1ccc(O)cc1.COc1ccccc1OCCNC[C@H](O)COc1ccc(O)cc1.O=C(O)/C=C/C(=O)O` [STD-101-D1, (S)-4-(2-hydroxy-3-((2-(2-methoxyphenoxy)ethyl)amino)propoxy)phenol hemifumarate], for which the Ki at ADR - Alpha 2C was determined as 108 nM; on ADRB3 it was 485 nM; on ADR - Alpha 2A, 1170 nM; on ADR- Alpha 1A, 17 nM; at 5-HT1B, 382 nM; at 5-HT 2B, 25 nM. The “decrease in blood pressure” value in data set [1] was found to be 46%. Moreover, the “increase in heart rate” value in data set [1] is reported as 13%. In addition, the “compound remaining after 60 min, mouse liver microsomes” value in data set [2] is 62.8%. The “Binding Affinity Ki” value in data set [3] is recorded as “- (< 50% inhibition of radioligand binding at 10 μM STD-101-D1)”. For the same molecule, the concentration at 105 min in data set [4] was found to be 130 ± 28.2 ng/g.

The values above are taken from article PMC5529018, “Discovery of novel brain permeable and G protein-biased beta-1 adrenergic receptor partial agonists for the treatment of neurocognitive disorders” (PLoS ONE, 2017).
